Experimental findings from patent US20150344466A1 (SUMITOMO CHEMICAL COMPANY, LIMITED, priority 2013, published 2015) are described below.

Bounds are passed on as bounds.

Common to all, as to assay type: in vivo
The subject of experiment [1] is Musca domestica. The experiment is described as follows: Filter paper/sucrose bait death rate test on Musca domestica (Test Example 5). Particulars: female imagoes of Musca domestica, 0.7 ml on filter paper, after 24 hours. A digest of the protocol: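 Filter paper in a 5.5 cm cup dosed with 0.7 ml test drug solution, with 30 mg sucrose as bait. Ten female adult houseflies released and cup sealed. Dead insects counted after 24 h; death rate (%) = dead/tested × 100.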

The subject of experiment [2] is Spodoptera litura. The experiment is described as follows: Foliar spray test on Spodoptera litura on cabbage (Test Example 11). Particulars: 96 h, fourth instar larvae of Spodoptera litura on cabbage, 500 ppm spray 20 ml/cup, after 4 days, read-out: controlling value. The protocol: On the other hand, cabbage was planted in a polyethylene cup, and grown until the third-fourth true leaf was spread. The test spray solution was sprayed to the cabbage at a ratio of 20 ml/cup. After the drug solution sprayed orn the cabbage was dried, 10 fourth instar larvae of Spodoptera litura were allowed to parasitize the cabbage. After 4 days, the number of surviving Spodoptera litura on the cabbage leaves was examined, and the controlling value was calculated according to the following equation. Controlling value (%)={1−(Cb×Tai)/([…])}×100 In the equation, the symbols represent as follows. Cb: the number of insects in a non-treated section before treatment Cai: the number of insects in a non-treated section on observation Tb: the number of insects in a treated section before treatment Tai: the number of insects in a treated section on observation

Experiment [3] has as its system Plutella xylostella. As to the kind of experiment: Foliar spray test on Plutella xylostella on cabbage (Test Example 10). To be noted: 120 h, third instar larvae of Plutella xylostella on cabbage, 500 ppm spray 20 ml/cup, after five days, read-out: controlling value. The essentials:
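Cabbage at the third–fourth true-leaf stage sprayed with test solution at 20 ml/cup, dried, then infested with 10 third-instar larvae. Insects counted after five days; controlling value (%) calculated from treated and non-treated counts before treatment and at observation.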

The subject of experiment [4] is Culex pipiens pallens. The experiment is described as follows: Knockdown spray test on adult Culex pipiens pallens (Test Example 4). Particulars: topical, 0.25 h, active ingredient 0.1% w/v, 0.5 ml sprayed, within 15 minutes, read-out: knockdown rate of the test insects within 15 minutes. A digest of the protocol: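 Ten adult mosquitoes in a gauze-covered cup inside a 46×46×70 cm chamber were sprayed with 0.5 ml of test solution from 30 cm at 0.4 kg/cm^2. The cup was removed at once, and knocked-down insects were counted at 2, 5 and 15 min; knockdown rate (%) = knocked-down/tested ×100.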

In experiment [5] the test system is Blattella germanica. The experiment is described as follows: Knockdown spray test on Blattella germanica, 0.1% w/v oil formulation (Test Example 2). Particulars: topical, 0.25 h, active ingredient 0.1% w/v, 1.5 ml sprayed, within 15 minutes, read-out: knockdown rate of the test insects within 15 minutes. A digest of the protocol:
(§1)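 Ten German cockroaches (5 males, 5 females) in a mesh-bottomed, butter-walled container were sprayed with 1.5 ml test solution from 60 cm at 0.42 kg/cm^2 inside a chamber.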

Experiment [6] relates to Musca domestica. The experiment is described as follows: Knockdown spray test on adult Musca domestica (Test Example 3). To be noted: topical, 0.25 h, active ingredient 2.0% w/v, 0.5 ml sprayed, within 15 minutes, read-out: knockdown rate of the test insects within 15 minutes. The protocol:
Ten adult Musca domestica (five males and five females) were released in a polyethylene cup (bottom diameter: 10.6 cm), and the cup was covered with a 16-mesh nylon gauze. The polyethylene cup was placed on the bottom of a test chamber (bottom: 46 cm×46 cm, height: 70 cm). From a height of 30 cm above the upper surface of the polyethylene cup, 0.5 ml of the test drug solution was sprayed using a spray gun (a spraying pressure of 0.9 kg/cm^2). Immediately after spraying, the cup was taken out from the test chamber, and after 2 minutes, 5 minutes and 15 minutes, the number of knocked-down insects was counted to obtain a knockdown rate. The knockdown rate was calculated by the following equation.
Knockdown Rate (%)=(Number of Knocked-down Insects/Number of Tested Insects)×100

Experiment [7] deals with Culex pipiens pallens. The experiment is described as follows: Larvicidal test on Culex pipiens pallens, eight days (Test Example 7). Particulars: 192 h; last-instar larvae of Culex pipiens pallens; 3.5 ppm in water; eight days later; read-out: death rate. How it is done: 20 last-instar larvae of Culex pipiens pallens were released into a liquid to which 0.7 ml of the above test drug solution was added to 100 ml of ion-exchanged water (a concentration of the active ingredient of 3.5 ppm). Eight days later, the life and death of the Culex pipiens pallens was examined, and the death rate was calculated. The death rate was calculated by the following equation.
Death rate (%)=(Number of dead insects/Number of tested insects)×100

For experiment [8], the system named is Blattella germanica. As to the kind of experiment: Knockdown spray test on Blattella germanica, 2.0% w/v oil formulation (Test Example 1). To be noted: topical, 0.25 h, active ingredient 2.0% w/v, 1.5 ml sprayed, within 15 minutes, read-out: knockdown rate of the test insects within 15 minutes. The essentials: as §1

Take `O=C(NCC1CCOCC1)c1cc(COCc2cccc(Cl)c2)on1` [(69), N-(tetrahydropyran-4-ylmethyl)-5-(3-chlorobenzyloxymethyl)isoxazole-3-carboxamide]: the results for the pest or weed control at 500 ppm in experiment [1], in experiment [2] and in experiment [3] were no less than 90%, no less than 80% and no less than 90%, respectively. Moreover, the pest or weed control at 0.1 % strength in experiment [4] and in experiment [5] was no less than 80% each time.
On to `O=C(NCC1CCOCC1)c1cc(COCc2cccc(OC(F)(F)F)c2)on1` [(79)], for which the values for the pest or weed control at 500 ppm in experiment [1], in experiment [2] and in experiment [3] were no less than 90%, no less than 80% and no less than 90%, respectively. The pest or weed control at 0.1 % strength in experiment [4] and in experiment [5] was no less than 80% throughout.
For the molecule `O=C(NCC1CCOC1)c1cc(COCc2cc3ccccc3s2)on1` (centres unmarked) [(112), N-(tetrahydrofuran-3-ylmethyl)-5-(benzothiophen-2-ylmethoxymethyl)isoxazole-3-carboxamide], the pest or weed control at 500 ppm in experiment [2] is no less than 80%. For the same molecule, the pest or weed control at 0.1 % strength in experiment [4] and in experiment [5] was no less than 80% in each case.
Take `O=C(NCC1CCOC1)c1cc(COc2cccc(Br)c2)on1` (centres unmarked) [(196), N-(tetrahydrofuran-3-ylmethyl)-5-(3-bromophenoxymethyl)isoxazole-3-carboxamide]: the pest or weed control at 500 ppm in experiment [2] is no less than 80%. Moreover, the pest or weed control at 0.1 % strength in experiment [4] and in experiment [5] was no less than 80% each time.
For the molecule `O=C(NCC1CCOCC1)c1cc(COc2cccc(Br)c2)on1` [(197), N-(tetrahydropyran-4-ylmethyl)-5-(3-bromophenoxymethyl)isoxazole-3-carboxamide], in experiment [2], the pest or weed control at 500 ppm is no less than 80%. Moreover, in experiment [4], the pest or weed control at 0.1 % strength was no less than 80%.
`O=C(NCC1CCOC1)c1cc(COCc2ccc(Br)c(F)c2)on1` (centres unmarked) [(272), N-(tetrahydrofuran-3-ylmethyl)-5-(4-bromo-3-fluorobenzyloxymethyl)isoxazole-3-carboxamide]: the pest or weed control at 500 ppm in experiment [2] is no less than 80%; in experiment [3] it was no less than 90%. The pest or weed control at 0.1 % strength in experiment [4] is no less than 80%.
In the case of `O=C(NCC1CCOC1)c1cc(Cc2cccc(F)c2)on1` (centres unmarked) [(318), N-(tetrahydrofuran-3-ylmethyl)-5-(3-fluorobenzyl)isoxazole-3-carboxamide], the pest or weed control at 500 ppm was no less than 80% in experiment [2] and no less than 90% in experiment [3]. In addition, the pest or weed control at 0.1 % strength in experiment [4] and in experiment [5] was no less than 80% in each case.
As to `O=C(NCC1CCOC1)c1cc(Cc2cccc(Cl)c2)on1` (centres unmarked) [(321), N-(tetrahydrofuran-3-ylmethyl)-5-(3-chlorobenzyl)isoxazole-3-carboxamide], the pest or weed control at 500 ppm was no less than 90% in experiment [1] and no less than 80% in experiment [2]. Besides, the pest or weed control at 0.1 % strength in experiment [4] and in experiment [5] was no less than 80% each time.
`O=C(NCC1CCOC1)c1cc(Cc2ccc(Cl)c(Cl)c2)on1` (centres unmarked) [(325), N-(tetrahydrofuran-3-ylmethyl)-5-(3,4-dichlorobenzyl)isoxazole-3-carboxamide]: the pest or weed control at 500 ppm was no less than 90% in experiment [1] and no less than 80% in experiment [2]. Besides, the pest or weed control at 0.1 % strength in experiment [4] and in experiment [5] was no less than 80% in each case.
Turning to `CC1(CNC(=O)c2cc(CCCc3ccc4ccccc4c3)on2)COC1` [(332), N-(3-methyloxetan-3-ylmethyl)-5-[3-(2-naphthyl)propyl]isoxazole-3-carboxamide], the pest or weed control at 2 % strength in experiment [6] and in experiment [8] was no less than 80% throughout. For the same molecule, the pest or weed control at 3.5 ppm in experiment [7] is no less than 90%. Moreover, the pest or weed control at 0.1 % strength in experiment [4] and in experiment [5] was no less than 80% throughout.
